From patent publication US20240269220A1, “USES OF BLETILLA FORMOSANA EXTRACT FOR THE TREATMENT OF DISEASES ASSOCIATED WITH DYSREGULATED ACTIVATION OF NEUTROPHILS” (Chang Gung University, priority 2022, published 2024)

Tests used:
[1] = test system: fMLF/CB-activated human neutrophils; assay: Extracellular superoxide anion production (ferricytochrome c reduction) in fMLF/CB-activated human neutrophils; assay type: cell-based; conditions: Neutrophil, chemical components of the extract, read-out: Superoxide anions IC50
Protocol: (§1) The study was conducted with the approval of the Institutional Review Board of Chang Gung Memorial Hospital in accordance with the Declaration of Helsinki. After written informed consent was obtained, whole blood samples were drawn from healthy individuals aged 20-30 years who had not taken any medication within the previous 5 weeks. Neutrophils were then isolated using the standard procedures for dextran sedimentation, Ficoll-Hypaque gradient centrifugation, and hypotonic lysis of erythrocytes. The isolated neutrophils were then suspended in Ca^2+-free HBSS (pH 7.4) and stored at 4° C. until use.
Extracellular superoxide anion production in activated neutrophils was assessed through the reduction of ferricytochrome c. After incubating them with Ca^2+(1 mM) and ferricytochrome c (0.6 mg/mL) at 37° C., the isolated human neutrophils (6×10^5 cells/mL) were then incubated with DMSO or the present B. formosana extract for 5 min. The cells were pretreated with cytochalasin B (CB, 1 or 2 μg/mL) for 3 min and stimulated with fMLF. The change in absorbance at 550 nm was detected continuously using a spectrophotometer (U-3010, Hitachi, Tokyo, Japan), and superoxide anion levels were calculated using a method described previously (Hwang et al., 2003 Mol. Pharmacol. 64(6), 1419-1427).

[2] = test system: fMLF/CB-activated human neutrophils; assay: Neutrophil elastase release in fMLF/CB-activated human neutrophils; assay type: cell-based; conditions: chemical components of the extract
Protocol: as §1
Human neutrophils (6×10^5 cells/mL) were incubated with DMSO or the present B. formosana extract after treatment with 1 mM CaCl2 and 100 μM NE substrate (Methoxysuccinyl-Ala-Ala-Pro-Val-p-nitroanilide) at 37° C. for 5 min. Cells were stimulated with fMLF (0.1 μM)/cytochalasin B (CB) (0.5 μg/mL) for 10 min before determination of NE release by measuring the change of absorbance at 405 nm in a spectrophotometer.

IC50 [1] [µM] | IC50 [2] [µM] | SMILES
1.86 ± 0.21 | 2.71 ± 0.16 | COc1cc(O)cc(CCc2ccccc2)c1 [BF8-4-4, 3-hydroxy-5-methoxybibenzyl]
4.63 ± 0.54 | > 10 | COc1cccc(CCc2cc(O)cc(OC)c2)c1 [BF8-4-2, 3′,5-dimethoxy-3-hydroxybibenzyl]
0.66 ± 0.12 | 6.26 ± 1.19 | COc1cc(O)c(Cc2ccc(O)cc2)c2c1-c1ccc(O)cc1CC2 [Orchidble, 9,10-dihydro-1-[(4-hydroxyphenyl)methyl]-4-methoxy-2,7-phenanthrenediol]
4.64 ± 0.23 | 7.41 ± 0.5 | COc1cc(CCc2cccc(O)c2)cc(OC)c1 [BF8-4-3, 3,5-dimethoxy-3′-hydroxybibenzyl]
4.3 ± 0.5 | > 10 | COc1cc(O)cc(CCc2cccc(O)c2)c1 [Batatasin III, 3,3′-dihydroxy-5-methoxybibenzyl]
